We go through five compounds from the supplement of paper PMC10307832.

The test system of one experiment is NCI-H322M. Put plainly: relative viability (nuclei count vs DMSO), 5 days (fraction); higher = more cells survive. To be noted: first compound 0.8 µM. In short, it runs like this:
(§1)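 Relative viability equals treated-well nuclei counts divided by vehicle-well nuclei counts. Counts came from 4× images of lung cancer cell lines grown in 1536-well plates for 5 days after pin-tool dosing on the day after seeding. Dosing used one drug alone or a fixed anchor-drug dose plus five library-drug doses (not always all listed) in √10 steps, and values are medians of duplicate plates.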
Take `CCCCCCCCCCCC1=C(O)C(=O)C=C(O)C1=O` [Embelin] + Cc1nc(Nc2ncc(C(=O)Nc3c(C)cccc3Cl)s2)cc(N2CCN(CCO)CC2)n1 [Dasatinib] (partner 0.075 µM): the relative viability was 0.263.
With `CCCCCCCCCCCC1=C(O)C(=O)C=C(O)C1=O` [Embelin] + CC(=O)c1c(C)c2cnc(Nc3ccc(N4CCNCC4)cn3)nc2n(C2CCCC2)c1=O [Palbociclib] (partner 0.5 µM), the relative viability was determined as 0.528.
Still for that read-out and setting: in the case of `CCCCCCCCCCCC1=C(O)C(=O)C=C(O)C1=O` [Embelin] + COc1cccc2cc(-c3nc([C@H]4CC[C@H](C(=O)O)CC4)n4ncnc(N)c34)[nH]c12 [OSI-027] (partner 0.5 µM) it was 0.744; in that of `CCCCCCCCCCCC1=C(O)C(=O)C=C(O)C1=O` [Embelin] + Nc1nc2[nH]cc(CCc3ccc(C(=O)N[C@@H](CCC(=O)O)C(=O)O)cc3)c2c(=O)[nH]1 [Pemetrexed] (partner 0.2 µM), 0.625.

Still in this experiment, the particulars now being: first compound 2.53 µM.
As to `CCCCCCCCCCCC1=C(O)C(=O)C=C(O)C1=O` [Embelin] + CCNC(=O)c1noc(-c2cc(C(C)C)c(O)cc2O)c1-c1ccc(CN2CCOCC2)cc1 [Luminespib] (partner 0.01 µM), the relative viability stood at 1.19.
Still for that read-out and setting: the same measure for `CCCCCCCCCCCC1=C(O)C(=O)C=C(O)C1=O` [Embelin] + Cc1nc(Nc2ncc(C(=O)Nc3c(C)cccc3Cl)s2)cc(N2CCN(CCO)CC2)n1 [Dasatinib] (partner 0.075 µM): 0.261; for `CCCCCCCCCCCC1=C(O)C(=O)C=C(O)C1=O` [Embelin] + CC(=O)c1c(C)c2cnc(Nc3ccc(N4CCNCC4)cn3)nc2n(C2CCCC2)c1=O [Palbociclib] (partner 0.5 µM): 0.493.
On the same count and under the same terms, in the case of `CCCCCCCCCCCC1=C(O)C(=O)C=C(O)C1=O` [Embelin] + COc1cccc2cc(-c3nc([C@H]4CC[C@H](C(=O)O)CC4)n4ncnc(N)c34)[nH]c12 [OSI-027] (partner 0.5 µM) it was 0.645.
On to `CCCCCCCCCCCC1=C(O)C(=O)C=C(O)C1=O` [Embelin] + Nc1nc2[nH]cc(CCc3ccc(C(=O)N[C@@H](CCC(=O)O)C(=O)O)cc3)c2c(=O)[nH]1 [Pemetrexed] (partner 0.2 µM), for which the relative viability came out at 0.646.

Staying with this experiment, now noted: first compound 8 µM.
For `CCCCCCCCCCCC1=C(O)C(=O)C=C(O)C1=O` [Embelin] + CCNC(=O)c1noc(-c2cc(C(C)C)c(O)cc2O)c1-c1ccc(CN2CCOCC2)cc1 [Luminespib] (partner 0.01 µM), the relative viability was 0.83.
Same read-out and setting: in the case of `CCCCCCCCCCCC1=C(O)C(=O)C=C(O)C1=O` [Embelin] + Cc1nc(Nc2ncc(C(=O)Nc3c(C)cccc3Cl)s2)cc(N2CCN(CCO)CC2)n1 [Dasatinib] (partner 0.075 µM) it was 0.232; in that of `CCCCCCCCCCCC1=C(O)C(=O)C=C(O)C1=O` [Embelin] + CC(=O)c1c(C)c2cnc(Nc3ccc(N4CCNCC4)cn3)nc2n(C2CCCC2)c1=O [Palbociclib] (partner 0.5 µM), 0.512.
On the same count and under the same terms, the same measure for `CCCCCCCCCCCC1=C(O)C(=O)C=C(O)C1=O` [Embelin] + COc1cccc2cc(-c3nc([C@H]4CC[C@H](C(=O)O)CC4)n4ncnc(N)c34)[nH]c12 [OSI-027] (partner 0.5 µM): 0.512; for `CCCCCCCCCCCC1=C(O)C(=O)C=C(O)C1=O` [Embelin] + Nc1nc2[nH]cc(CCc3ccc(C(=O)N[C@@H](CCC(=O)O)C(=O)O)cc3)c2c(=O)[nH]1 [Pemetrexed] (partner 0.2 µM): 0.667.

In a further experiment the test system is NCI-H1650. The description is as above. To be noted: first compound 0.08 µM. In short, it runs like this: as §1
`CCCCCCCCCCCC1=C(O)C(=O)C=C(O)C1=O` [Embelin] + CCNC(=O)c1noc(-c2cc(C(C)C)c(O)cc2O)c1-c1ccc(CN2CCOCC2)cc1 [Luminespib] (partner 0.01 µM) came in with a relative viability of 0.16.
Same read-out and setting: in the case of `CCCCCCCCCCCC1=C(O)C(=O)C=C(O)C1=O` [Embelin] + Cc1nc(Nc2ncc(C(=O)Nc3c(C)cccc3Cl)s2)cc(N2CCN(CCO)CC2)n1 [Dasatinib] (partner 0.075 µM) it was 0.348; in that of `CCCCCCCCCCCC1=C(O)C(=O)C=C(O)C1=O` [Embelin] + CC(=O)c1c(C)c2cnc(Nc3ccc(N4CCNCC4)cn3)nc2n(C2CCCC2)c1=O [Palbociclib] (partner 0.5 µM), 0.358; in that of `CCCCCCCCCCCC1=C(O)C(=O)C=C(O)C1=O` [Embelin] + COc1cccc2cc(-c3nc([C@H]4CC[C@H](C(=O)O)CC4)n4ncnc(N)c34)[nH]c12 [OSI-027] (partner 0.5 µM), 0.791.
Same read-out and setting: the same measure for `CCCCCCCCCCCC1=C(O)C(=O)C=C(O)C1=O` [Embelin] + Nc1nc2[nH]cc(CCc3ccc(C(=O)N[C@@H](CCC(=O)O)C(=O)O)cc3)c2c(=O)[nH]1 [Pemetrexed] (partner 0.2 µM): 0.437.

Staying with this experiment, now noted: first compound 0.8 µM.
Take `CCCCCCCCCCCC1=C(O)C(=O)C=C(O)C1=O` [Embelin] + CCNC(=O)c1noc(-c2cc(C(C)C)c(O)cc2O)c1-c1ccc(CN2CCOCC2)cc1 [Luminespib] (partner 0.01 µM): the relative viability is 0.196.
The compound `CCCCCCCCCCCC1=C(O)C(=O)C=C(O)C1=O` [Embelin] + Cc1nc(Nc2ncc(C(=O)Nc3c(C)cccc3Cl)s2)cc(N2CCN(CCO)CC2)n1 [Dasatinib] (partner 0.075 µM) had a relative viability of 0.408.
Same read-out and setting: the same measure for `CCCCCCCCCCCC1=C(O)C(=O)C=C(O)C1=O` [Embelin] + CC(=O)c1c(C)c2cnc(Nc3ccc(N4CCNCC4)cn3)nc2n(C2CCCC2)c1=O [Palbociclib] (partner 0.5 µM): 0.406.
On the same count and under the same terms, in the case of `CCCCCCCCCCCC1=C(O)C(=O)C=C(O)C1=O` [Embelin] + COc1cccc2cc(-c3nc([C@H]4CC[C@H](C(=O)O)CC4)n4ncnc(N)c34)[nH]c12 [OSI-027] (partner 0.5 µM) it was 0.801.
The compound `CCCCCCCCCCCC1=C(O)C(=O)C=C(O)C1=O` [Embelin] + Nc1nc2[nH]cc(CCc3ccc(C(=O)N[C@@H](CCC(=O)O)C(=O)O)cc3)c2c(=O)[nH]1 [Pemetrexed] (partner 0.2 µM) returned a relative viability of 0.369.

Staying with this experiment, now noted: first compound 2.53 µM.
For the compound `CCCCCCCCCCCC1=C(O)C(=O)C=C(O)C1=O` [Embelin] + CCNC(=O)c1noc(-c2cc(C(C)C)c(O)cc2O)c1-c1ccc(CN2CCOCC2)cc1 [Luminespib] (partner 0.01 µM), the relative viability is 0.212.
Same read-out and setting: in the case of `CCCCCCCCCCCC1=C(O)C(=O)C=C(O)C1=O` [Embelin] + Cc1nc(Nc2ncc(C(=O)Nc3c(C)cccc3Cl)s2)cc(N2CCN(CCO)CC2)n1 [Dasatinib] (partner 0.075 µM) it was 0.337; in that of `CCCCCCCCCCCC1=C(O)C(=O)C=C(O)C1=O` [Embelin] + CC(=O)c1c(C)c2cnc(Nc3ccc(N4CCNCC4)cn3)nc2n(C2CCCC2)c1=O [Palbociclib] (partner 0.5 µM), 0.38; in that of `CCCCCCCCCCCC1=C(O)C(=O)C=C(O)C1=O` [Embelin] + COc1cccc2cc(-c3nc([C@H]4CC[C@H](C(=O)O)CC4)n4ncnc(N)c34)[nH]c12 [OSI-027] (partner 0.5 µM), 0.653.
Regarding `CCCCCCCCCCCC1=C(O)C(=O)C=C(O)C1=O` [Embelin] + Nc1nc2[nH]cc(CCc3ccc(C(=O)N[C@@H](CCC(=O)O)C(=O)O)cc3)c2c(=O)[nH]1 [Pemetrexed] (partner 0.2 µM), the relative viability worked out at 0.494.

The same experiment, now with this note: first compound 8 µM.
`CCCCCCCCCCCC1=C(O)C(=O)C=C(O)C1=O` [Embelin] + CCNC(=O)c1noc(-c2cc(C(C)C)c(O)cc2O)c1-c1ccc(CN2CCOCC2)cc1 [Luminespib] (partner 0.01 µM): the relative viability turned out to be 0.185.
Still for that read-out and setting: in the case of `CCCCCCCCCCCC1=C(O)C(=O)C=C(O)C1=O` [Embelin] + Cc1nc(Nc2ncc(C(=O)Nc3c(C)cccc3Cl)s2)cc(N2CCN(CCO)CC2)n1 [Dasatinib] (partner 0.075 µM) it was 0.315.
